This is an account of results in ChEMBL document CHEMBL1629430, “2'-deoxy-2'-α-fluoro-2'-β-C-methyl 3',5'-cyclic phosphate nucleotide prodrug analogs as inhibitors of HCV NS5B polymerase: discovery of PSI-352938” (Bioorg Med Chem Lett, 2010).

The EC90 is the point of the concentration-response curve where the effect stands at 90%. High values mean a need for much substance, low ones an effect from little substance. For orientation: CC50 means the concentration giving 50% cytotoxicity. Usually IC50 stands for the midpoint of a concentration-inhibition curve. A lower IC50 goes with inhibition by little substance. In general, Cmax refers to the highest concentration seen after dosing.

Data set [1] concerns Hepatitis C virus. The data set is described as follows: Antiviral activity against Hepatitis C virus -infected in human HuH7 cells. It counts as functional, Hepacivirus hominis, Huh-7.
The next data set relates to Liver. Kind of data set: AUC (0 to 24 hrs) in rat liver. Also noted: time < 24 hr. It counts as ADME, tissue-based. The settings on record: in vivo.
The nature of data set [2]: Cytotoxicity against human HepG2 cells. It counts as cell-based.
The nature of data set [3]: Half life of the compound in simulated gastrointestinal fluid. It counts as physicochemical. The settings on record: read-out: Stability (converted).
The nature of data set [4]: Mitochondrial toxicity in human HepG2 cells. It counts as cell-based.
A further data set relates to Hepatocyte. The data set is described as follows: Drug level in human hepatocytes assessed as cellular triphosphate level at 100 uM after 72 hrs by HPLC method. It counts as ADME, cell-based.
In data set [5] the test system is Hepatitis C virus. Kind of data set: Antiviral activity against Hepatitis C virus harboring NS5B S282T mutant -infected in human HuH7 cells. Format: functional, Hepacivirus hominis, Huh-7.
The nature of data set [6]: Cytotoxicity against human BxPC3 cells. It counts as cell-based, BXPC-3.
Data set [7] in a line: Cytotoxicity against human CEM cells. Format: cell-based. The note with it: CEM cells (CCRF-CEM).
Data set [8] concerns Hepatitis C virus. The data set is described as follows: Antiviral activity against wild-type Hepatitis C virus -infected in human HuH7 cells. It counts as functional, Hepacivirus hominis, Huh-7.
Data set [9] in a line: Half life in human liver S9 fraction. It counts as ADME, subcellular. The note with it: read-out: Stability (converted).
The subject of data set [10] is Rattus norvegicus. Kind of data set: AUC (0 to 24 hrs) in rat liver assessed as 2'-Deoxy-2'-alpha-F-2'-beta-C-methyl guanosine triphosphate level at 50 mg/kg, po. It counts as ADME, organism-based. Set-up: time < 24 hr, dose 50 mg/kg, route oral. The settings on record: in vivo.
Data set [11] can be described thus: Drug level in Hepatitis C virus -infected human HuH7 cells assessed as cellular triphosphate level at 100 uM after 72 hrs by HPLC method. It counts as ADME, cell-based. The note with it: huh-7, 72 h.
Data set [12] in a line: Cytotoxicity against human HuH7 cells. It counts as cell-based, Huh-7.
Data set [13] is described as follows: Half life in human plasma. Format: ADME, cell-free. The note with it: read-out: Stability (converted).
The nature of data set [14]: Mitochondrial toxicity in human CEM cells. Format: cell-based. The settings on record: CEM cells (CCRF-CEM).
Data set [15] in a line: Half life of the compound in simulated intestinal fluid. It counts as physicochemical. The note with it: for half-life: simulated intestinal fluid, read-out: Stability.
For data set [16], the target named is RNA-directed RNA polymerase (Hepacivirus hominis, UniProt O39930). Kind of data set: Inhibition of HCV NS5B polymerase.
Chain of RNA-directed RNA polymerase (O39930 whole entry): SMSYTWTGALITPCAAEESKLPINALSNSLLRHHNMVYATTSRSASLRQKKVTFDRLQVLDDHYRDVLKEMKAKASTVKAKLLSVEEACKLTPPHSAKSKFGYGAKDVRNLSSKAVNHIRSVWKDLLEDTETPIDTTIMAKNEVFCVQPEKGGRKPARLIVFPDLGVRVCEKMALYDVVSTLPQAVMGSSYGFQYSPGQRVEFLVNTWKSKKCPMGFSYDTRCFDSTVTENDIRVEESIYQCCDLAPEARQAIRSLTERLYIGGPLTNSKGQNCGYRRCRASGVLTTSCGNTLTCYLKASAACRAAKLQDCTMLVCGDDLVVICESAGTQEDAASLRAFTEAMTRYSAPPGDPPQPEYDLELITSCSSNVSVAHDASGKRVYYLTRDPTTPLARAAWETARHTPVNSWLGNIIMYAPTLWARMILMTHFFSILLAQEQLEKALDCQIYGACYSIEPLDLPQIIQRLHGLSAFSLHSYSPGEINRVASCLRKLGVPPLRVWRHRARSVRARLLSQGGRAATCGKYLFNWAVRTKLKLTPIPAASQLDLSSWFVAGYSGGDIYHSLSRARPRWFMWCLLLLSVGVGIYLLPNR
The test system of data set [17] is Rattus norvegicus. Kind of data set: Cmax in rat liver assessed as 2'-Deoxy-2'-alpha-F-2'-beta-C-methyl guanosine triphosphate level at 50 mg/kg, po. Set-up: dose 50 mg/kg, route oral. The settings on record: in vivo. It counts as ADME, organism-based.

Take `CCCCNc1nc(N)nc2c1ncn2[C@@H]1O[C@@H]2COP(=O)(OC(C)C)O[C@H]2[C@@]1(C)F` (single isomer, unassigned): the 90% effect concentration (EC90) in the data set with Hepatitis C virus [1] (Hepatitis C virus, Huh-7) was 9.28 µM.
For `CCOc1nc(N)nc2c1ncn2[C@@H]1O[C@@H]2CO[P@](=O)(OC(C)C)O[C@H]2[C@@]1(C)F` (stereo in doubt; 24a), the AUC came out at 13234 ng·h/g in the data set on Liver and 41893 ng·h/g in the data set on Rattus norvegicus [10]. In addition, the EC90 in the data set on Hepatitis C virus [1] (Hepatitis C virus, Huh-7) came to 1.37 µM; in the data set with Hepatitis C virus [5] (Hepatitis C virus, Huh-7), 1.61 µM; in the data set with Hepatitis C virus [8] (Hepatitis C virus, Huh-7) it was 1.37 µM. Besides, the CC50 in [2], in [4], in data set [6], in data set [7], in [12] and in [14] was above 100 µM each time. In addition, the half-life in [3] was above 20 h; in [9], above 24 h; in data set [13] it was above 24 h; in data set [15], above 20 h. The Drug uptake in the data set with Hepatocyte is reported as 0.59 mM; in data set [11], 0.41 mM.
The compound `CO[P@@]1(=O)OC[C@H]2O[C@@H](n3cnc4c(O)nc(N)nc43)[C@](C)(F)[C@@H]2O1` came in with an EC90 in the data set on Hepatitis C virus [1] (Hepatitis C virus, Huh-7) of 11.8 µM. In [12], the CC50 was above 65 µM.
In the data set with Hepatitis C virus [1] (Hepatitis C virus, Huh-7), `CC(C)O[P@@]1(=O)OC[C@H]2O[C@@H](n3cnc4c(N5CCC5)nc(N)nc43)[C@](C)(F)[C@@H]2O1` showed an EC90 of 18.6 µM.
Take `COP1(=O)OC[C@H]2O[C@@H](n3cnc4c(OCc5ccccc5)nc(N)nc43)[C@](C)(F)[C@@H]2O1` (stereo partly drawn): the 90% effect concentration (EC90) in the data set with Hepatitis C virus [1] (Hepatitis C virus, Huh-7) came to 5.05 µM.
In the case of `CCOc1nc(N)nc2c1ncn2[C@@H]1O[C@@H]2CO[P@](=O)(OC(C)C)O[C@H]2[C@@]1(C)F` (stereo in doubt; 24b), the EC90 worked out at 0.69 µM with Hepatitis C virus [1], 0.86 µM in the data set with Hepatitis C virus [5] and 0.69 µM in the data set with Hepatitis C virus [8]. Further, the Stability in [15] (simulated gi fluid) was 18 h.
As to `CCCOc1nc(N)nc2c1ncn2[C@@H]1O[C@@H]2CO[P@](=O)(OCCC)O[C@H]2[C@@]1(C)F` (stereo in doubt; 26a), the EC90 with Hepatitis C virus [1] stood at 23.8 µM.
`CCCOc1nc(N)nc2c1ncn2[C@@H]1O[C@@H]2COP(=O)(OC)O[C@H]2[C@@]1(C)F` (stereo partly drawn) came in with an EC90 in the data set on Hepatitis C virus [1] (Hepatitis C virus, Huh-7) of 0.83 µM. This compound also returned a CC50 in data set [12] above 30 µM.
The corresponding values for `CC(C)C(=O)OC[C@H]1O[C@@H](n2ccc(N)nc2=O)[C@](C)(F)[C@@H]1OC(=O)C(C)C` [MERICITABINE] are 3.9 µM and above 100 µM.
Turning to `CCOc1nc(N)nc2c1ncn2[C@@H]1O[C@@H]2COP(=O)(Oc3ccccc3)O[C@H]2[C@@]1(C)F` (stereo partly drawn), it took 1.72 µM to reach the 90% level in the data set with Hepatitis C virus [1] (Hepatitis C virus, Huh-7) (EC90).
On to `CCCNc1nc(N)nc2c1ncn2[C@@H]1O[C@@H]2COP(=O)(OC)O[C@H]2[C@@]1(C)F` (stereo partly drawn), for which the concentration for an effect of 90% (EC90) was found to be 0.92 µM with Hepatitis C virus [1] (Hepatitis C virus, Huh-7); 3.08 µM in the data set with Hepatitis C virus [5] (Hepatitis C virus, Huh-7); 0.92 µM with Hepatitis C virus [8] (Hepatitis C virus, Huh-7). Further, the CC50 in data set [2] is above 100 µM; in data set [4], 14 µM; in data set [6], above 100 µM; in data set [7], above 100 µM; in data set [12] it was above 30 µM; in [14], above 100 µM. Besides, the half-life in [3] was 4 h; in data set [9] it was above 24 h; in [13], 15.7 h; in [15], above 20 h.
As to `CCCCNc1nc(N)nc2c1ncn2[C@@H]1O[C@@H]2COP(=O)(OCC)O[C@H]2[C@@]1(C)F` (single isomer, unassigned), in the data set on Hepatitis C virus [1] (Hepatitis C virus, Huh-7), the EC90 was 48.1 µM.
Same read-out and setting: for `CCCCNc1nc(N)nc2c1ncn2[C@@H]1O[C@@H]2COP(=O)(Oc3ccccc3)O[C@H]2[C@@]1(C)F` (single isomer, unassigned) the value was 4.76 µM; for `COP1(=O)OC[C@H]2O[C@@H](n3cnc4c(NC5CCC5)nc(N)nc43)[C@](C)(F)[C@@H]2O1` (stereo partly drawn), 1.56 µM; for `CCO[P@@]1(=O)OC[C@H]2O[C@@H](n3cnc4c(N5CCC5)nc(N)nc43)[C@](C)(F)[C@@H]2O1`, 69.2 µM.
In turn, `C[C@@]1(F)[C@H](O)[C@@H](COP(=O)(O)OP(=O)(O)OP(=O)(O)O)O[C@H]1n1cnc2c(=O)[nH]c(N)nc21` [PSI-352666] had an IC50 in [16] of 5.94 µM. The compound also had a half-maximal cytotoxic concentration (CC50) in [12] above 100 µM.
Turning to `CCOc1nc(N)nc2c1ncn2[C@@H]1O[C@@H]2COP(=O)(OC)O[C@H]2[C@@]1(C)F` (stereo partly drawn), the AUC in the data set on Liver stood at 8310 ng·h/g; in the data set on Rattus norvegicus [10], 4090 ng·h/g. The EC90 was found to be 0.41 µM in the data set on Hepatitis C virus [1] (Hepatitis C virus, Huh-7); 0.4 µM in the data set with Hepatitis C virus [5] (Hepatitis C virus, Huh-7); 0.41 µM with Hepatitis C virus [8] (Hepatitis C virus, Huh-7). Also, the CC50 in data set [2] was 95 µM; in [4], above 100 µM; in data set [6], above 100 µM; in [7], above 100 µM; in data set [12], above 30 µM; in data set [14] it was above 100 µM. For the same compound, the half-life in data set [3] was above 20 h; in data set [9], above 24 h; in [13], 8.88 h; in data set [15], above 20 h. Moreover, the values for the Drug uptake (with Hepatocyte; in [11]) were 0.12 mM and 0.08 mM, respectively. For the same compound, in the data set with Rattus norvegicus [17], the Cmax turned out to be 613 ng/g.
Regarding `C[C@@]1(F)[C@H](O)[C@@H](CO)O[C@H]1n1cnc2c(O)nc(N)nc21`, the 90% effect level in the data set with Hepatitis C virus [1] (Hepatitis C virus, Huh-7) (EC90) was put at 69 µM.
As to `C[C@@]1(F)[C@@H]2O[P@@](=O)(OC3CCC3)OC[C@H]2O[C@H]1n1cnc2c(N3CCC3)nc(N)nc21`, the 90% effect level with Hepatitis C virus [1] (Hepatitis C virus, Huh-7) (EC90) was put at 7.3 µM.
`CCCOc1nc(N)nc2c1ncn2[C@@H]1O[C@@H]2CO[P@](=O)(OCCC)O[C@H]2[C@@]1(C)F` (stereo in doubt; 26b) yielded an EC90 in the data set with Hepatitis C virus [1] of 5.27 µM. Also, the CC50 in [12] was above 11 µM.
On to `C[C@@]1(F)[C@@H]2O[P@@](=O)(Oc3ccccc3)OC[C@H]2O[C@H]1n1cnc2c(N3CCC3)nc(N)nc21`, for which the concentration for an effect of 90% (EC90) in the data set on Hepatitis C virus [1] (Hepatitis C virus, Huh-7) was 7.7 µM.
In the case of `COP1(=O)OC[C@H]2O[C@@H](n3cnc4c(N5CCC5)nc(N)nc43)[C@](C)(F)[C@@H]2O1` (stereo partly drawn), the EC90 with Hepatitis C virus [1] (Hepatitis C virus, Huh-7) was determined as 0.98 µM; in the data set on Hepatitis C virus [5] (Hepatitis C virus, Huh-7), 1.53 µM; in the data set on Hepatitis C virus [8] (Hepatitis C virus, Huh-7) it was 0.98 µM. Also, the half-maximal cytotoxic concentration (CC50) in data set [2] is above 100 µM; in data set [4], above 100 µM; in data set [6], above 100 µM; in data set [7], above 100 µM; in [12], above 30 µM; in [14], above 100 µM. Moreover, the half-life in data set [3] was above 20 h; in [9] it was 2.53 h; in [13], 8.33 h; in data set [15], above 20 h.
Turning to `COP1(=O)OC[C@H]2O[C@@H](n3cnc4c(NC5CCCC5)nc(N)nc43)[C@](C)(F)[C@@H]2O1` (stereo partly drawn), it took 7.2 µM to reach the 90% level in the data set with Hepatitis C virus [1] (Hepatitis C virus, Huh-7) (EC90).
